Assays:
[1] = tested on: GLUT4 promoter; experiment: GLUT4 promoter luciferase assay with rxrα or pparγ siRNA; format: cell-based; details: Rut 20 µM
Procedure: HEK293 cells are transfected with luciferase reporter plus Renilla luciferase vector and other plasmids if needed for 5 hours, and cells are then incubated with indicated concentrations of compounds for another 24 h. Finally cells are lysed and luciferase activities are measured using Dual Luciferase Assay System kit. The results are presented as the fold activation relative to untreated cells after normalization with Renilla luciferase values. Each experiment is repeated at least twice, with each sample analyzed in triplicates.

[2] = tested on: GLUT4 promoter; experiment: GLUT4 promoter-luciferase reporter assay in 3T3-L1 adipocytes; format: cell-based; details: pre-treated 24 hours
Procedure: (a) Chemical structure of (+)-Rutamarin. […] Green fluorescence represents the total GLUT4, and red fluorescence depicts the translocated GLUT4 to cell membrane. (d) Insulin (170 nM)-induced GLUT4 translocation of CHO-K1/GLUT4 cells treated with compound-2 (C2, 10 µM), pervanadate (Pervan, 100 µM) and Rut (5, 10, 20 µM) for 5 minutes. (e) Immunofluorescence with antibody against GLUT4 (green), DAPI (blue) in 3T3-L1 adipocytes. GLUT4 translocation is detected either in the insulin (17 nM) stimulated 3T3-L1 adipocytes for 5 minutes, or pre-treated with Rut (20 µM) for 8 hours and then stimulated with insulin (17 nM) for 5 minutes. (f) Rut potently stimulates GLUT4 promoter activity in 3T3-L1 adipocytes (20 µM, Rut was pre-treated in the cells for 24 hours. Reporter gene is GLUT4 promoter-luciferase plasmid together with Renilla luciferase expression vector as a control). (g) H^3-glucose uptake assay in fully differentiated 3T3-L1 adipocytes treated with C2 (10 µM) and different doses of Rut (5–25 µM). Treatment of Rut for 30 minutes improves the insulin (17 nM)-stimulated glucose uptake. (h) GLUT4 expression is determined by western blotting with an antibody against GLUT4 in 3T3-L1 adipocytes treated with Rut (20 µM) for 48 hours. Data are presented as means ± s.e.m (*P<0.05, **P<0.01) from three independent experiments.

[3] = biological target: T1, PTPα (Homo sapiens, UniProt P18433); experiment: PTP enzyme inhibition assay (pNPP substrate); format: biochemical; details: read-out: IC50 PTPα; PTPs 0.3 µM, pNPP 5 mM, 25°C; NI: No inhibition at 100 µM
T1 construct: pGEX2T-PTPα182–803; GST (N); made in house; host or cells: E. coli BL21 (DE3)
Procedure: (§1) The enzymatic activities of the recombinant PTPs are measured at 25°C using pNPP as substrate. The initial velocities of enzymatic reactions are determined by continuously measuring the absorbance at 405 nm every 15 s using a microplate spectrophotometer (Bio-Rad). […] To determine the inhibition type, each concentration of Rut (0, 50 and 75 µM) is incubated with PTP1B (0.3 µM) in reaction buffer (50 mM HEPES, pH7.0, 1 mM EDTA, and 100 mM NaCl) for 10 min and the reactions are initiated by different concentrations of pNPP (0.5–10 mM). The inhibition type is determined using double-reciprocal plots. In determination of the selectivity of Rut against PTPs, the result is referred as no inhibition when 100 µM Rut inhibits no enzyme activity. The same reaction systems are designed for all PTPs including PTP1B.

[4] = biological target: T2, TC-PTP (Homo sapiens, UniProt P17706); experiment: PTP enzyme inhibition assay (pNPP substrate); format: biochemical; details: PTPs 0.3 µM, pNPP 5 mM, 25°C; NI: No inhibition at 100 µM
T2 construct: pGEX4T-1-TC-PTP1–288; GST (N); made in house; host or cells: E. coli BL21 (DE3)
T2 sequence (P17706 1-288): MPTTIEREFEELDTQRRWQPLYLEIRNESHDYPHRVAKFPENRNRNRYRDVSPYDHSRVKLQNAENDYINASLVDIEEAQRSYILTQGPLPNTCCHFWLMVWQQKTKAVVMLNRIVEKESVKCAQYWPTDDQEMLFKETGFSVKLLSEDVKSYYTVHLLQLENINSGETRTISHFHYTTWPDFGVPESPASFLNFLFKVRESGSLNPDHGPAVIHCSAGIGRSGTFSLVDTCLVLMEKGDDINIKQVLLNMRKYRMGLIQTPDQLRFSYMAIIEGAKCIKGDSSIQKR
Procedure: as §1

[5] = biological target: T3, PTP1B (Homo sapiens, UniProt P18031); experiment: PTP enzyme inhibition assay (pNPP substrate); format: biochemical
T3 construct: pGEX4T-1-PTP1B1–321; GST (N); made in house; host or cells: E. coli BL21 (DE3)
T3 sequence (P18031 1-321): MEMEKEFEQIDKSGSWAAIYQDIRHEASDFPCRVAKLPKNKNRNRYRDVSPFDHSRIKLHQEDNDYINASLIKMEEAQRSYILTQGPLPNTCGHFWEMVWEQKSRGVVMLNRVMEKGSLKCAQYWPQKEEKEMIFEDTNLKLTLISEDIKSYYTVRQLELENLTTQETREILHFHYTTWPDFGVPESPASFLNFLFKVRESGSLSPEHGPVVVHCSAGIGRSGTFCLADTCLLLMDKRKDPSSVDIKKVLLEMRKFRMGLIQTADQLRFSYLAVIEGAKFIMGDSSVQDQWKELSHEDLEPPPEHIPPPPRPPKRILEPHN
Procedure: as §1

[6] = biological target: T4, PTP1B (D48A) (Homo sapiens, UniProt P18031, D48A); experiment: PTP enzyme inhibition assay, D48A mutant; format: biochemical
T4 construct: pGEX4T-1-PTP1B1–321; GST (N); made in house; host or cells: E. coli (BL21 (DE3) stated for the wild-type plasmid)
T4 sequence (P18031 1-321 D48A): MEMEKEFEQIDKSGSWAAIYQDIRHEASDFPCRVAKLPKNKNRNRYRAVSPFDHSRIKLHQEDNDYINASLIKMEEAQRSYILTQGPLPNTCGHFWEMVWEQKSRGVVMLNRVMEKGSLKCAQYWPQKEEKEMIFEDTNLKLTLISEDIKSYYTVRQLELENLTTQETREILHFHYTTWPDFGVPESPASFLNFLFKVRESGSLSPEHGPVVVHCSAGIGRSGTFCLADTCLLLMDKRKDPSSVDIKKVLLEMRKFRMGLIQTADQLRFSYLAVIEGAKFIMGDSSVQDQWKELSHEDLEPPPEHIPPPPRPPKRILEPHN
Procedure: The plasmid pGEX4T1-PTP1B (D48A) is generated by site-directed mutagenesis with pGEX4T1-PTP1B (WT) as template. The primer pairs are sense: 5′-[…]-3′ and antisense: 5′-[…]-3′.
as §1

[7] = biological target: T5, RXRα-LBD/SRC1_613–773 interaction (Homo sapiens, UniProt P19793); experiment: SPR SRC1 recruitment assay; format: binding; details: 1 µM RXRα-LBD incubated with compound 1 hour
T5 construct: His-tag (N); made in house; host or cells: E. coli BL21 (DE3)
T5 sequence (P19793 227-458 limits assumed): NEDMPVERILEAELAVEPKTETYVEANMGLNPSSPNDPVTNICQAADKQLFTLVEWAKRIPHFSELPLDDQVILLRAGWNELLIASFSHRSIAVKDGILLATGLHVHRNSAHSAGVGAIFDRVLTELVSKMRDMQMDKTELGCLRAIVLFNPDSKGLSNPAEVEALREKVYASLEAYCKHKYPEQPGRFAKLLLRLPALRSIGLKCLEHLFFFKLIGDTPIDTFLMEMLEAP
T5 sequence (Q15788 613-773 partner limits assumed): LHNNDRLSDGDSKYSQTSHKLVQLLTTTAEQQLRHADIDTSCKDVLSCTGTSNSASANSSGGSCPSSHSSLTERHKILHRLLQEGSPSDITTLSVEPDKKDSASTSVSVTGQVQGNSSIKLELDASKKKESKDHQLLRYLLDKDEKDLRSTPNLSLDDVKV
Procedure: (§2) Binding affinities of Rut towards proteins are analyzed using SPR technology based Biacore 3000 instrument (GE Healthcare). In the assay, proteins are immobilized to CM5 chips using a standard amine-coupling procedure (Biacore manual). The proteins to be covalently bound to the chips are diluted in 10 mM sodium acetate buffer (pH4.5) to a final concentration of 0.10 mg/ml. Before experiments, baseline is equilibrated with a continuous flow of running buffer (10 mM HEPES, 150 mM NaCl, 3 mM EDTA, and 0.005% (v/v) surfactant P20, pH7.4) for 2 hours. Subsequently, Rut with a gradient of concentrations is injected to the channels at a flow rate of 20 µL/min for 60 seconds, followed by disassociation for 120 seconds. The 1∶1 Langmuir binding fitting model in BIAevaluation software version 3.1 (Biacore) is used to determine the equilibrium dissociation constants (K Ds) of compounds. […] Different concentrations of PPARγ-LBD or RXRα-LBD are injected to the channel at a flow rate of 20 µL/min for 60 s, followed by disassociation for 120 s.

[8] = biological target: T6, PPARγ-LBD/SRC1_613–773 interaction (Homo sapiens, UniProt P37231); experiment: SPR SRC1 recruitment assay; format: binding; details: 1 µM PPARγ-LBD incubated with compound 1 hour
T6 construct: pET15b-PPARγ-LBD202–477; His-tag (N); made in house; host or cells: E. coli BL21 (DE3)
T6 sequence (P37231 230-505): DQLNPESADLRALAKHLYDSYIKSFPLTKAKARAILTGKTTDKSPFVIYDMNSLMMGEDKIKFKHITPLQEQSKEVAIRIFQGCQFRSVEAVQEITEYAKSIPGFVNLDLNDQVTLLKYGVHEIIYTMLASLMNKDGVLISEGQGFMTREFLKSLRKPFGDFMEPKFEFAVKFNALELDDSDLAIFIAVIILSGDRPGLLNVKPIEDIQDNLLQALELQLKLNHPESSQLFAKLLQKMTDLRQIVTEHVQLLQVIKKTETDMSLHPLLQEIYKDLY
T6 sequence (Q15788 613-773 partner limits assumed): as the sequence (Q15788 613-773 partner limits assumed) above
Procedure: as §2

In the case of `C=CC(C)(C)c1cc2cc3c(cc2oc1=O)O[C@H](C(C)(C)OC(C)=O)C3` [(+)-Rutamarin], the “Relative glut4-pro activity” value ([1]; Fig. 6b, pSuperbasic control vector) is reported as 1.31 X, the “Relative glut4-pro activity” value ([1]; Fig. 6b, pSuperbasic-RXRα (rxrα siRNA)) is reported as 0.98 X and the “Relative glut4-pro activity” value ([1]; Fig. 6c, pSuperbasic control vector) is reported as 1.55 X. The “Relative glut4-pro activity” value ([1]; Fig. 6c, pSuperbasic-PPARγ (pparγ siRNA)) was 1.39 X, the GLUT4 promoter activity [2] was “dose-dependently induce” and the IC50 [3] was greater than 100 µM. The IC50 [4] was 26.8 µM, the IC50 ([5]; PTPs 0.3 µM, pNPP 5 mM, 25°C, NI: No inhibition at 100 µM) was 6.4 µM and the “inhibition type (Lineweaver-Burk, double-reciprocal plots)” value ([5]; Rut 0, 50 and 75 µM, pNPP 0.5–10 mM) was “competitive inhibitor”. For the same compound, the IC50 [6] was 14.8 µM, the “effect on interaction between RXRα-LBD and SRC1” value [7] was “efficiently enhances” and the “effect on interaction between PPARγ-LBD and SRC1” value [8] was “cannot enhance”.

Reference: PMC3288053 (PLoS ONE, 2012)
